# From US20250270227A1, “CAMPTOTHECIN DERIVATIVE, AND PHARMACEUTICAL COMPOSITION AND USE THEREOF” (SIMCERE ZAIMING PHARMACEUTICAL CO., LTD., priority 2021, published 2025)
# Like-named read-outs stand apart in the source and are kept apart here.
# Experiments:
# Assay in all cases: Test 1 of anti-proliferative activity against tumor cells (Cell-Titer Glo)
# Assay type in all cases: cell-based
# [1] = system: human breast cancer cell line SKBR3
# Protocol: (§1) Cell culture: HCT116 cells and SKBR3 cells were cultured in McCoy's 5a medium containing 10% fetal bovine serum+1% penicillin-streptomycin at 37° C. and 5% CO2, and OVCAR3 cells were cultured in 1640 medium containing 20% fetal bovine serum+2 μg/mL bovine insulin+1% penicillin-streptomycin at 37° C. and 5% CO2. Cells in logarithmic growth phase were suitable for the experiment.
# (§2) Detection of cell proliferation activity: The inhibitory activity of the compounds on the proliferation of the three cell lines HCT116, SKBR3 and OVCAR3 was detected using Cell-Titer Glo reagent. HCT116 cells (1500 cells per well), SKBR3 cells (3000 cells per well) and OVCAR3 cells (5000 cells per well) were seeded in 96-well plates and cultured at 37° C. and 5% CO2 for 24 h. The solution of the compound to be tested (the compound was dissolved in DMSO with the concentration of the compound being 1 mM, then the compound was diluted to 3 μM with DMSO, with 3-fold dilution and a total of 9 concentrations, and 10 μL of the prepared compound solution was transferred to a 96-well plate with the final concentration of 0-300 nM) was added. The cells were placed at 37° C. and 5% CO2 for further culture. HCT116 cells were cultured for 3 days, and SKBR3 cells and OVCAR3 cells were cultured for 5 days. The cell viability was detected by adding Cell-Titer Glo reagent.
# (§3) Additionally, a negative control group and a positive control group were provided as Bottom and Top, respectively. In the negative control group, the cells were not added, only the same volume of medium was added, and other operations were consistent with those in the experimental group; in the positive control group, the test compound was not added, only the same volume of DMSO was added, and other operations were consistent with those in the experimental group.
# (§4) Data analysis: The % compound inhibition was calculated, and fitting was performed to obtain IC50 of the compound.
# (§5) % Compound inhibition=1−100%*(Signal−Bottom)/(Top−Bottom).
# (§6) Signal represents the signal value of the experimental group, Bottom represents the average signal value of the negative control group, and Top represents the average signal value of the positive control group.
# [2] = system: Human colorectal cancer cell line HCT116
# Protocol: as §1, §2, §3, §4, §5, §6
# [3] = system: human ovarian cancer cell line OVCAR3
# Protocol: as §1, §2, §3, §4, §5, §6
# [4] = Homo sapiens, SK-BR-3, 120 h, read-out: SKBR3 Anti-proliferative activity IC50 (nM), SKBR3 cells, cultured 5 days with compound, Cell-Titer Glo
# [5] = Homo sapiens, HCT-116, 72 h, read-out: HCT116 Anti-proliferative activity IC50 (nM), HCT116 cells, cultured 3 days with compound, Cell-Titer Glo
# [6] = Homo sapiens, OVCAR-3, 120 h, read-out: OVCAR3 Anti-proliferative activity IC50 (nM)
SMILES,"IC50 [1, 4] [nM]","IC50 [2, 5] [nM]","IC50 [3, 6] [nM]",other results
"CC[C@@]1(O)C(=O)OCc2c1cc1n(c2=O)Cc2c-1nc1cc(F)c(Cl)c(F)c1c2CNC(=O)C(O)C1CC1 (single isomer, unassigned) [Compound 23-P2]",,,,"IC50 ([1]; SKBR3 cells, cultured 5 days with compound, Cell-Titer Glo, read-out: SKBR3 Anti-proliferative activity IC50): 4.5 nM; IC50 ([2]; HCT116 cells, cultured 3 days with compound, Cell-Titer Glo, read-out: HCT116 Anti-proliferative activity IC50): 9.5 nM; IC50 ([3]; OVCAR3 cells, cultured 5 days with compound, Cell-Titer Glo, read-out: OVCAR3 Anti-proliferative activity IC50): 1.5 nM"
"CC[C@@]1(O)C(=O)OCc2c1cc1n(c2=O)Cc2c-1nc1cc(Cl)c(C)cc1c2CNC(=O)CO [Compound 6, (S)-N-((8-chloro-4-ethyl-4-hydroxy-9-methyl-3,14-dioxo-3,4, 12,14-tetrahydro-1H-pyrano[3′,4′:6,7]indolizino[1,2-b]quinolin-11-yl)methyl)-2-hydroxyacetamide]",4.8,12.6,2.1,
"CC[C@@]1(O)C(=O)OCc2c1cc1n(c2=O)Cc2c-1nc1ccc3c(c1c2CNC(=O)C(O)C1CC1)CCC3 (stereo partly drawn) [Compound 13, 2-cyclopropyl-N-(((S)-8-ethyl-8-hydroxy-9,12-dioxo-2,3,8,9, 12,14-hexahydro-1H,11H-cyclopentadieno[f]pyrano[3′,4′:6,7]indolizino [1,2-b]quinolin-15-yl)methyl)-2-hydroxyacetamide]",,8,0.7,
"CC[C@@]1(O)C(=O)OCc2c1cc1n(c2=O)Cc2c-1nc1cc(F)c(Cl)c(F)c1c2CNC(=O)CO [Compound 21, (S)-N-((9-chloro-4-ethyl-8,10-difluoro-4-hydroxy-3,14-dioxo-3,4,12,14-tetrahydro-1H-pyrano[3′,4′:6,7]indolizino[1,2-b]quinolin-11-yl)methyl)-2-hydroxyacetamide]",4,7.1,1.7,
"CC[C@@]1(O)C(=O)OCc2c1cc1n(c2=O)Cc2c-1nc1cc(F)c(Cl)c(F)c1c2CNC(=O)C(C)(C)O [Compound 22, (S)-N-((9-chloro-4-ethyl-8,10-difluoro-4-hydroxy-3,14-dioxo-3,4,12,14-tetrahydro-1H-pyrano[3′,4′:6,7]indolizino[1,2-b]quinolin-11-yl)methyl)-2-hydroxy-2-methylpropanamide]",3.5,4,1.4,
"CC[C@@]1(O)C(=O)OCc2c1cc1n(c2=O)Cc2c-1nc1cc(F)c(Cl)c(F)c1c2CNC(=O)C(O)C1CC1 (stereo partly drawn) [Compound 23, N-(((S)-9-chloro-4-ethyl-8,10-difluoro-4-hydroxy-3,14-dioxo-3,4,12,14-tetrahydro-1H-pyrano[3′,4′:6,7]indolizino[1,2-b]quinolin-11-yl)methyl)-2-cyclopropyl-2-hydroxyacetamide]",,,3.9,"IC50 ([1]; read-out: SKBR3 Anti-proliferative activity IC50, SKBR3 cells, cultured 5 days with compound, Cell-Titer Glo): 5.3 nM; IC50 ([2]; read-out: HCT116 Anti-proliferative activity IC50, HCT116 cells, cultured 3 days with compound, Cell-Titer Glo): 5.6 nM"
"CC[C@@]1(O)C(=O)OCc2c1cc1n(c2=O)Cc2c-1nc1cc(F)c(Cl)c(F)c1c2CNC(=O)C(O)C1CC1 (stereo partly drawn) [Compound 23-P1, N-(((S)-9-chloro-4-ethyl-8,10-difluoro-4-hydroxy-3,14-dioxo-3,4,12,14-tetrahydro-1H-pyrano[3′,4′:6,7]indolizino[1,2-b]quinolin-11-yl)methyl)-2-cyclopropyl-2-hydroxyacetamide]",,,,"IC50 ([1]; Homo sapiens, SK-BR-3, 120 h, SKBR3 cells, cultured 5 days with compound, Cell-Titer Glo, read-out: SKBR3 Anti-proliferative activity IC50): 5.8 nM; IC50 ([2]; Homo sapiens, HCT-116, 72 h, HCT116 cells, cultured 3 days with compound, Cell-Titer Glo, read-out: HCT116 Anti-proliferative activity IC50): 7.9 nM; IC50 ([3]; Homo sapiens, OVCAR-3, 120 h, OVCAR3 cells, cultured 5 days with compound, Cell-Titer Glo, read-out: OVCAR3 Anti-proliferative activity IC50): 1.9 nM"
"CC[C@@]1(O)C(=O)OCc2c1cc1n(c2=O)Cc2c-1nc1cc(F)c(Cl)c(F)c1c2CNC(=O)[C@@H](C)O [Compound 25, (R)-N-(((S)-9-chloro-4-ethyl-8,10-difluoro-4-hydroxy-3,14-dioxo-3,4,12,14-tetrahydro-1H-pyrano[3′,4′:6,7]indolizino[1,2-b]quinolin-11-yl)methyl)-2-hydroxypropanamide]",3.7,7.9,2,
"CC[C@@]1(O)C(=O)OCc2c1cc1n(c2=O)Cc2c-1nc1cc(F)c(Cl)c(F)c1c2CNC(=O)[C@H](C)O [Compound 26, (S)-N-(((S)-9-chloro-4-ethyl-8,10-difluoro-4-hydroxy-3,14-dioxo-3,4,12,14-tetrahydro-1H-pyrano[3′,4′:6,7]indolizino[1,2-b]quinolin-11-yl)methyl)-2-hydroxypropanamide]",4.2,9.5,1.6,
"CC[C@@]1(O)C(=O)OCc2c1cc1n(c2=O)Cc2c-1nc1cc3c(c(Cl)c1c2CNC(=O)C(O)C1CC1)OCO3 (stereo partly drawn) [Compound 30, N-(((S)-15-chloro-7-ethyl-7-hydroxy-8,11-dioxo-7,8,11,13-tetrahydro-10H-[1,3]dioxolo[4,5-g]pyrano[3′,4′:6,7]indolizino[1,2-b]quinolin-14-yl)methyl)-2-cyclopropyl-2-hydroxyacetamide]",,4.6,0.4,
"CC[C@@]1(O)C(=O)OCc2c1cc1n(c2=O)Cc2c-1nc1cc(F)c(Cl)c(F)c1c2CNC(=O)CCO [Compound 32, (S)-N-((9-chloro-4-ethyl-8,10-difluoro-4-hydroxy-3,14-dioxo-3,4,12,14-tetrahydro-1H-pyrano[3′,4′:6,7]indolizino[1,2-b]quinolin-11-yl)methyl)-3-hydroxypropanamide]",,9.8,1,
"CC[C@@]1(O)C(=O)OCc2c1cc1n(c2=O)Cc2c-1nc1cc(Cl)c3c(c1c2CNC(=O)CO)CCC3 [Compound 33, (S)-N-((4-chloro-8-ethyl-8-hydroxy-9,12-dioxo-2,3,8,9,12,14-hexahydro-1H,11H-cyclopentadieno[f]pyrano[3′,4′:6,7]indolizino[1,2-b]quinolin-15-yl)methyl)-2-hydroxyacetamide]",,5.5,0.8,
"CC[C@@]1(O)C(=O)OCc2c1cc1n(c2=O)Cc2c-1nc1cc(Cl)c3c(c1c2CNC(=O)C(O)C1CC1)CCC3 (stereo partly drawn) [Compound 34, N-(((S)-4-chloro-8-ethyl-8-hydroxy-9,12-dioxo-2,3,8,9,12,14-hexahydro-1H,11H-cyclopentadieno[f]pyrano[3′,4′:6,7]indolizino[1,2-b]quinolin-15-yl)methyl)-2-cyclopropyl-2-hydroxyacetamide]",,2.3,0.6,
"CC[C@@]1(O)C(=O)OCc2c1cc1n(c2=O)Cc2c-1nc1cc3c(c(F)c1c2CNC(=O)CO)OCO3 [Compound 38, (S)-N-((7-ethyl-15-fluoro-7-hydroxy-8,11-dioxo-7,8,11,13-tetrahydro-10H-[1,3]dioxolo[4,5-g]pyrano[3′,4′:6,7]indolizino[1,2-b]quinolin-14-yl)methyl)-2-hydroxyacetamide]",,,2.9,
"CC[C@@]1(O)C(=O)OCc2c1cc1n(c2=O)Cc2c-1nc1cc3c(c(F)c1c2CNC(=O)CN)OCO3 [Compound 40, (S)-2-amino-N-((7-ethyl-15-fluoro-7-hydroxy-8,11-dioxo-7,8,11,13-tetrahydro-10H-[1,3]dioxolo[4,5-g]pyrano[3′,4′:6,7]indolizino[1,2-b]quinolin-14-yl)methyl)acetamide]",,,11.3,
